Measurements from the supplement of paper PMC11451515.

Tested on: NOMO1
Assay: cell viability relative to DMSO control; higher = less cytotoxic
Details: 48 h
Summary of the method: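 Library compounds in DMSO were pin-dosed in an 11-point threefold series (47 μM to 0.79 nM) onto leukemia cells in 1536-well plates (5 μl). Plates held 500 cells/well of NOMO1 or SEM or 1000 cells/well of P12-Ichikawa, each adapted for at least four passages in each medium. Luminescence was read with CellTiter-Glo One after 48 h at 37°C. Viability means the per-plate percentage relative to DMSO wells, using cell-free wells as background.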

[1] = HPLM + 10% dialyzed FBS, 0.000781 µM
[2] = HPLM + 10% dialyzed FBS, 0.00234 µM
[3] = HPLM + 10% dialyzed FBS, 0.00702 µM
[4] = HPLM + 10% dialyzed FBS, 0.0211 µM
[5] = HPLM + 10% dialyzed FBS, 0.0632 µM
[6] = HPLM + 10% dialyzed FBS, 0.19 µM
[7] = HPLM + 10% dialyzed FBS, 0.569 µM
[8] = HPLM + 10% dialyzed FBS, 1.71 µM
[9] = HPLM + 10% dialyzed FBS, 5.12 µM
[10] = HPLM + 10% dialyzed FBS, 15.4 µM
[11] = HPLM + 10% dialyzed FBS, 46.1 µM
[12] = RPMI 5 mM glucose + 10% FBS, 0.000781 µM
[13] = RPMI 5 mM glucose + 10% FBS, 0.00234 µM
[14] = RPMI 5 mM glucose + 10% FBS, 0.00702 µM
[15] = RPMI 5 mM glucose + 10% FBS, 0.0211 µM
[16] = RPMI 5 mM glucose + 10% FBS, 0.0632 µM
[17] = RPMI 5 mM glucose + 10% FBS, 0.19 µM
[18] = RPMI 5 mM glucose + 10% FBS, 0.569 µM
[19] = RPMI 5 mM glucose + 10% FBS, 1.71 µM
[20] = RPMI 5 mM glucose + 10% FBS, 5.12 µM
[21] = RPMI 5 mM glucose + 10% FBS, 15.4 µM
[22] = RPMI 5 mM glucose + 10% FBS, 46.1 µM
[23] = RPMI 5 mM glucose + 10% dialyzed FBS, 0.000781 µM
[24] = RPMI 5 mM glucose + 10% dialyzed FBS, 0.00234 µM
[25] = RPMI 5 mM glucose + 10% dialyzed FBS, 0.00702 µM
[26] = RPMI 5 mM glucose + 10% dialyzed FBS, 0.0211 µM
[27] = RPMI 5 mM glucose + 10% dialyzed FBS, 0.0632 µM
[28] = RPMI 5 mM glucose + 10% dialyzed FBS, 0.19 µM
[29] = RPMI 5 mM glucose + 10% dialyzed FBS, 0.569 µM
[30] = RPMI 5 mM glucose + 10% dialyzed FBS, 1.71 µM
[31] = RPMI 5 mM glucose + 10% dialyzed FBS, 5.12 µM
[32] = RPMI 5 mM glucose + 10% dialyzed FBS, 15.4 µM
[33] = RPMI 5 mM glucose + 10% dialyzed FBS, 46.1 µM

Compound	cell viability [1]	cell viability [2]	cell viability [3]	cell viability [4]	cell viability [5]	cell viability [6]	cell viability [7]	cell viability [8]	cell viability [9]	cell viability [10]	cell viability [11]	cell viability [12]	cell viability [13]	cell viability [14]	cell viability [15]	cell viability [16]	cell viability [17]	cell viability [18]	cell viability [19]	cell viability [20]	cell viability [21]	cell viability [22]	cell viability [23]	cell viability [24]	cell viability [25]	cell viability [26]	cell viability [27]	cell viability [28]	cell viability [29]	cell viability [30]	cell viability [31]	cell viability [32]	cell viability [33]
Cc1cccc(/C=N/Nc2cc(N3CCOCC3)nc(OCCc3ccccn3)n2)c1	101%	106%	111%	107%	90.2%	97.9%	94.5%	77.5%	41.5%	34.4%	24.3%	98.8%	107%	97.9%	99.5%	87.6%	97%	77.2%	68.2%	19.3%	22.6%	21.4%	99.8%	93%	90.9%	98.6%	95.4%	85.8%	75.9%	38.7%	15.1%	18.8%	17.5%
CCN1CCCC1CNC(=O)c1cc([S+](N)(=O)[O-])ccc1OC (stereo unspecified)	104%	117%	127%	127%	142%	128%	111%	117%	140%	121%	78%	120%	113%	102%	103%	123%	106%	118%	120%	119%	117%	105%	111%	126%	106%	125%	115%	139%	131%	134%	122%	126%	129%
CC(C)Oc1ccc(C(=O)N[C@H](CNC(=O)CN(C)C)Cc2ccc(-c3cn4cccc([C@H](C)O)c4n3)cc2)cc1Cl	123%	131%	108%	123%	103%	99.8%	113%	32.6%	33.1%	23.6%	32.5%	104%	107%	112%	113%	113%	98.5%	87%	24.8%	19.7%	14.6%	21.6%	107%	124%	112%	125%	113%	109%	100%	39.4%	25.6%	20.1%	24.8%
CNC(=O)C1=CC=C(C)C(=C1)N2C(=C/C(=C(/Br)C2=O)OCC3=C(F)C=C(F)C=C3)\C												114%	128%	122%	127%	127%	151%	139%	137%	136%	145%	130%											
COc1cc(N2CCC(N(C)C)CC2)ccc1Nc1ncc(Cl)c(Nc2ccccc2P(C)(C)=O)n1												123%	116%	130%	118%	124%	115%	111%	102%	21.3%	23.8%	23.2%	115%	110%	128%	117%	123%	124%	107%	94.7%	31.4%	21.3%	27.6%
COC1=CC=C2/C3=N/CCN3\C(=N/C2=C1OC)NC(=O)C4=CC=CN=C4	124%	132%	123%	131%	121%	126%	114%	111%	93.2%	86%	78.6%	104%	115%	113%	123%	132%	108%	110%	114%	107%	115%	92.7%	116%	141%	117%	127%	131%	104%	103%	103%	83.6%	76.5%	68%
O=c1[nH]c(=O)n(C2CCCO2)cc1F (stereo unspecified)												10.4%	124%	108%	116%	105%	131%	106%	110%	116%	111%	109%											
COC(=O)\C1=C\CCN(C)C1	125%	115%	111%	102%	101%	124%	135%	115%	113%	112%	109%	84.7%	94.8%	96.5%	91.3%	85.3%	94%	110%	97.4%	93.6%	87%	99%	95.7%	96.3%	98.9%	95.7%	107%	97.4%	92.5%	97.6%	88.9%	102%	103%
CC(C)(O)/C=C\C(=O)[C@](C)(O)[C@H]1[C@H](O)C[C@]2(C)[C@@H]3CC=C4[C@@H](C=C(O)C(=O)C4(C)C)[C@]3(C)C(=O)C[C@@]12C	96.2%	115%	126%	116%	111%	74.7%	18.8%	17.3%	14.5%	7.22%	11.9%	106%	102%	95.5%	122%	89.2%	63.4%	30.2%	18.8%	16.1%	9.22%	14.5%	101%	110%	108%	110%	99.8%	58.2%	22.1%	16%	18.7%	9.49%	12.2%
CC(C)(C)[C@H](NC(=O)c1ccc(N)c(Cl)c1)C(=O)N1CCC[C@H]1C(=O)N[C@H](C#N)CC(=O)O												113%	126%	112%	118%	120%	126%	116%	30%	23%	22.7%	20.6%											
CC(C)[C@H](N)C(=O)OCCOC[N]1C=NC2=C1\N=C(N)/NC2=O	102%	119%	110%	122%	135%	135%	133%	123%	133%	113%	142%																						
COc1cc(C)c(Sc2cnc(NC(=O)c3ccc(CNC(C)C(C)C)cc3)s2)cc1C(=O)N1CCN(C(C)=O)CC1 (stereo unspecified)												117%	119%	128%	131%	117%	126%	134%	108%	105%	107%	126%											
COC1=CC=C(C=C1O)C/2=C/C(=O)C3=C(O2)C=C(O[C@@H]4O[C@H](CO[C@@H]5O[C@@H](C)[C@H](O)[C@@H](O)[C@H]5O)[C@@H](O)[C@H](O)[C@H]4O)C=C3O	112%	118%	129%	126%	130%	142%	134%	117%	117%	129%	139%	112%	103%	110%	115%	130%	114%	126%	125%	126%	124%	114%											
C[C@]12CC[C@H]3[C@@H](CCC/4=C/C(=O)CC[C@]34C)[C@@H]1CC[C@@H]2OC(=O)CCC5CCCC5	90.8%	100%	103%	113%	96.1%	113%	118%	104%	111%	114%	110%	86.5%	107%	119%	109%	101%	108%	114%	113%	114%	105%	109%	94.6%	105%	116%	110%	111%	116%	130%	107%	116%	111%	109%
C[C@@H](O)[C@@H]1NC(=O)[C@H](CCCCN)NC(=O)[C@@H](Cc2c[nH]c3ccccc23)NC(=O)[C@H](Cc2ccccc2)NC(=O)[C@@H](NC(=O)[C@H](N)Cc2ccccc2)CSSC[C@@H](C(=O)N[C@H](CO)[C@@H](C)O)NC1=O	75.7%	75%	90%	88.1%	103%	83.6%	91.8%	82.5%	74.2%	81.8%	75.9%	74.6%	79.4%	83.1%	79.3%	83.3%	81.6%	84.5%	76.8%	80.7%	81.1%	83.5%	86.9%	89%	87%	92.2%	93.6%	85.3%	101%	92.5%	91.2%	103%	112%
COc1ncc(-c2ccc3c(Nc4cc(Oc5cc(F)cc(F)c5)cc(C(=O)O)c4)c([S+](=O)([O-])NC4CC4)cnc3c2)c(OC)n1	112%	111%	91.1%	106%	113%	98%	95.7%	99.3%	86.5%	77.7%	87.2%	96.6%	102%	89.9%	95.6%	100%	84.1%	98.3%	92.3%	81.9%	87.7%	85.3%	97.2%	94.4%	94%	89%	92%	102%	89.7%	86.9%	81.1%	79.7%	75.6%
CCN1CCN(C(=O)Cc2ccc(Nc3ncc(F)c(Nc4ccc(C(=O)Nc5ccccc5Cl)cc4)n3)cc2)CC1	93.9%	119%	112%	115%	112%	114%	109%	109%	62.6%	62.4%	49.1%	99.6%	98.1%	98%	92.7%	111%	121%	101%	90.7%	81.2%	47.1%	59.4%	97.5%	109%	104%	117%	107%	103%	114%	103%	64.9%	55.8%	49%
CN1CCN(CCOc2cc(OC3CCOCC3)c3c(Nc4c(Cl)ccc5c4OCO5)ncnc3c2)CC1	134%	119%	125%	131%	125%	123%	134%	123%	89.4%	60.1%	71.4%																						
OCc1ccc(-c2ccc(-c3ccc(CO)s3)o2)s1	124%	121%	138%	147%	124%	114%	122%	107%	118%	108%	96.2%																						
